How the values were obtained:
Type in all cases: physicochemical
[1] = DLS particle size and PDI of hydrocortisone derivatives milled with Pluronic F127 (Examples 8, 9); conditions: for PDI of milled suspension / Size (Z-averaged) of milled suspension: 5% compound, 5% F127 in PBS pH 7.1, milled 25 hours; for Milled suspension PDI / Milled suspension Size (Z-average): final form B
Procedure: (§1) A milling procedure was employed in which aqueous dispersions containing coarse compound particles were individually milled with F127 at near-neutral pH buffer using a grinding medium. Briefly, a slurry containing 5% of compound and 5% F127 in PBS (0.0067 M PO4^3−), pH 7.1 was added to an equal bulk volume of 1-mm ceria-stabilized zirconium oxide beads in a glass vial (e.g., 2 mL of slurry per 2 mL of beads). A magnetic stir bar was used to agitate the beads, stirring at approximately 500 rpm at ambient conditions for 25 hours.
The milled suspensions were subjected to dynamic light scattering (DLS) measurements to determine particle size and polydispersity index (PDI, a measure of the width of the particle size distribution). The samples for DLS measurements were buffered with HyClone™ PBS (Phosphate-Buffered Saline) to produce isotonic samples that have a physiologically relevant pH.
Form 3-B was wet-milled using the same method that generated the data in Tables 13 and 14.

[2] = HPLC chemical purity of milled suspensions (stability to milling)
Procedure: as §1
The HPLC method used to determine the purity of milled suspensions is as follows: column—SunFire™ C18, 3.5 μm, 3.0×150 mm, column temperature—40° C., flow rate—0.7 mL/min, detection wavelength—254 nm, flow gradient—50:50 (0 minutes) to 0:100 (10 minutes) 0.1% phosphoric acid/H2O:acetonitrile.

[3] = XRPD crystal form before and after milling; conditions: milled with F127
Text: Particles were isolated by centrifugation, then resuspended in H2O and then recentrifuged. The wet sample was resuspended in H2O and deposited thinly and evenly onto a flat zero background sample holder (Rigaku 906165). The sample was allowed to air dry.
Milligram amounts were packed as an evenly thin layer of solid onto a zero background sample holder (Rigaku 906165).
XRPD patterns were obtained using a Rigaku MiniFlex 600 benchtop x-ray diffractometer equipped with a Cu X-ray tube (Cu/Kα=1.54059 Å), a six-position sample changer and a D/teX Ultra detector. […] Diffraction patterns were viewed and analyzed using PDXL analysis software provided by the instrument manufacturer. A reference standard silicon powder (NIST Standard Reference Material 640d) generated a peak at 28.43° and 28.45° two theta when samples were prepared as suspension in H2O (to simulate Procedure A) and Procedure B, respectively.
Except for Crystalline Form 1-B, the XRPD samples of all other forms were prepared using Procedure A (milled compounds) or Procedure B (neat compounds). […] was used to prepare the XRPD sample of Crystalline Form 1-B.
All input crystalline forms were arbitrarily designated as “A” forms. New forms that emerged after milling, if any, were sequentially designated as “B”, “C”, etc. An “A” form was not designated for Compound 2 since the input material was amorphous.

[4] = DLS particle size and PDI of drugs milled with F127 or SDS (Example 6)
Text: The technique described in Example 1 was applied to other non-polymeric solid particles to show the versatility of the approach. […] Table 12 lists the particle sizes for a representative selection of drugs that were milled using this method.

[5] = drug milled with stabilizer F127
[6] = drug milled with stabilizer SDS

PDI [4, 5] | Z-Ave D [4, 5] [nm] | PDI [4, 6] | Z-Ave D [4, 6] [nm] | Compound | Size (Z-averaged) of milled suspension [1] [nm] | Purity after milling ([2]; after milling with F127) [%] | Crystal form change after milling of Input forms? [3] | further results
0.123 | 225 | 0.154 | 216 | COc1ccc2c(c1)c(CC(=O)O)c(C)n2C(=O)c1ccc(Cl)cc1 [Indomethacin] |  |  |  | 
0.123 | 241 | 0.130 | 241 | CCOC(=O)O[C@]1(C(=O)OCCl)CC[C@H]2[C@@H]3CCC4=CC(=O)C=C[C@]4(C)[C@H]3[C@@H](O)C[C@@]21C [Loteprednol etabonate] |  |  |  | 
0.090 | 273 | 0.120 | 245 | C[C@]12C=CC(=O)C=C1CC[C@@H]1[C@@H]2[C@@H](O)C[C@@]2(C)[C@H]1CC[C@]2(O)C(=O)CO [Prednisolone] |  |  |  | 

The next lines start with the compound.

Compound | PDI [4, 5] | Z-Ave D [4, 5] [nm] | PDI [4, 6] | Z-Ave D [4, 6] [nm] | Size (Z-averaged) of milled suspension [1] [nm] | Purity after milling ([2]; after milling with F127) [%] | Crystal form change after milling of Input forms? [3] | further results
C[C@]12CCC(=O)C=C1CC[C@@H]1[C@@H]2[C@@H](O)C[C@@]2(C)[C@H]1CC[C@]2(OC(=O)CCS(=O)(=O)c1ccccc1)C(=O)CO [Compound 1, (10R,11S,13S,17R)-11-hydroxy-17-(2-hydroxyacetyl)-10,13-dimethyl-3-oxo-2,3,6,7,8,9,10,11,12,13,14,15,16,17-tetradecahydro-1H-cyclopenta[a]phenanthren-17-yl 3-(phenylsulfonyl)propanoate] |  |  |  |  | 509 | <90 | Yes | PDI of milled suspension [1]: 0.318; Purity after milling ([2]; after milling with F127, listed as 7): < 90%
C[C@]12CCC(=O)C=C1CC[C@@H]1[C@@H]2[C@@H](O)C[C@@]2(C)[C@H]1CC[C@]2(OC(=O)c1ccco1)C(=O)CO [Compound 2, (10R,11S,13S,17R)-11-hydroxy-17-(2-hydroxyacetyl)-10,13-dimethyl-3-oxo-2,3,6,7,8,9,10,11,12,13,14,15,16,17-tetradecahydro-1H-cyclopenta[a]phenanthren-17-yl furan-2-carboxylate] |  |  |  |  | 238 | >96 | No | 
C[C@]12CCC(=O)C=C1CC[C@@H]1[C@@H]2[C@@H](O)C[C@@]2(C)[C@H]1CC[C@]2(OC(=O)Cc1ccc(Br)cc1)C(=O)CO [Compound 3, (10R,11S,13S,17R)-11-hydroxy-17-(2-hydroxyacetyl)-10,13-dimethyl-3-oxo-2,3,6,7,8,9,10,11,12,13,14,15,16,17-tetradecahydro-1H-cyclopenta[a]phenanthren-17-yl 2-(4-bromophenyl)acetate] |  |  |  |  | 341 | >96 | Yes | PDI of milled suspension [1]: 0.197; Milled suspension PDI ([1]; input form A): 0.197; Milled suspension Size (Z-average) ([1]; input form A): 341 nm; Milled suspension PDI ([1]; input form B): 0.154; Milled suspension Size (Z-average) ([1]; input form B): 262 nm
CCC(=O)O[C@]1(C(=O)SCF)[C@H](C)C[C@H]2[C@@H]3C[C@H](F)C4=CC(=O)C=C[C@]4(C)[C@@]3(F)[C@@H](O)C[C@@]21C [Fluticasone propionate] | 0.114 | 203 | 0.193 | 202 |  |  |  | 
NS(=O)(=O)c1cc(C(=O)O)c(NCc2ccco2)cc1Cl [Furosemide] | 0.119 | 217 | 0.146 | 200 |  |  |  | 

— patent US20190216726A1, “Particles, Compositions and Methods for Ophthalmic and/or Other Applications” (priority 2016, published 2019)
